Laboratory results as given in patent US11091476B2, “Protein kinase inhibitors, preparation method and medical use thereof” (Gan & Lee Pharmaceuticals, priority 2015, dated 2021).

Target: CDK6/CyclinD3 (Homo sapiens (Human), UniProt Q00534)
Assay: CDK kinase inhibitory activity, ADP-Glo Kinase Assay, CDK6/CyclinD3
Format: biochemical
Details: for CDK1/CDK6: ratio of IC50s, selectivity for CDK6 over CDK1
Description: Measurement of CDK kinase inhibitory activity of the compounds of this disclosure.
In vitro inhibitory effect of the compounds of the disclosure on CDK (CDK1, CDK4 and CDK6) kinase activity was tested by the following method.
1.1 Instrument and Kit Information
1.2 Experimental Preparation • 1.2.1 Preparation of Kinase Reaction Buffer I: The 5×Reaction Buffer A (Promega; V307A-C) provided in the kit was mixed and diluted with MILLI-Q® H2O and 0.1 M DTT (dithiothreitol) to give 4× kinase buffer, and then MILLI-Q® H2O was further added to finally formulate the solution into 1× Kinase buffer.
1 μl of 10 mM standard substance stock solution was taken and added to 9 μl of kinase reaction buffer I and mixed well; then 90 μl of kinase reaction buffer I was added and mixed well; then 100 μl of kinase reaction buffer I was added and mixed well. The final concentration was 50 μM. • b. 40 μl of kinase reaction buffer II was added into B2 to B10 of a 96-well plate, and 50 μl of the above solution was added into B1; • c. 10 μl of solution was taken from well B1, added into B2, and mixed well; then 10 μl of the resulting solution was taken and added into B3, and dilution was carried out in sequence to B9, so as to obtain control solutions that are diluted by 5-fold sequentially. • (2) Preparation of test compound solution: • a. Test compound solutions at a certain concentration were taken, respectively, diluted with kinase reaction buffer I to a final concentration of 50 μM compound solution; • b. 40 μl of kinase reaction buffer II was added into H2 to H10 of the 96-well plate; and 50 μl of the above solution was added into H1; • c. 10 μl of solution was taken from well H1, added into H2, and mixed well; then 10 μl of the resulting solution was taken and added into H3, and dilution was carried out in sequence to H9, so as to obtain test compound solutions that are diluted by 5-fold sequentially. • 1.2.4 Preparation of a mixed solution of reaction substrate and ATP: • a. Preparation of ATP solution: • 200 μl of 0.1 mM ATP solution: 2 μl of 10 mM ATP was added to 198 μl of kinase reaction buffer I; • 300 μl of 50 μM ATP solution: 150 μl of kinase reaction buffer I was added to 150 μl of the above 0.1 mM ATP solution; • b. Preparation of 300 μl of reaction substrate solution: • 150 μl 1 μg/μl reaction substrate stock solution was added to 150 μl kinase reaction buffer I, and mixed well; • c. The above a/b solutions were mixed to obtain mixed solutions, respectively.
1.3 Experimental process: • 1.3.1: 2 μl of compound solutions of various concentrations were taken, added to a 384-well plate, and centrifuged 3 minutes; • 1.3.2: 4 μl of kinase solution was added to each well, centrifuged at 5000 rpm and 18° C. for 10 minutes, and shaken on a plate shaker for 10 minutes; • 1.3.3: 4 μl of mixed solution of substrate and ATP was added to each well, centrifuged at 5000 rpm and 18° C. for 10 minutes, and shaken on a plate shaker at 37° C. for 90 minutes; • 1.3.4: The 384-well plate was taken out, and allowed to stand to room temperature; • 1.3.5: 10 μl of ADP-GLO™ reagent was added to each well, centrifuged at 5000 rpm and 18° C. for 18 minutes, and shaken on a plate shaker at 25° C. for 40 minutes, and then the reaction was stopped; • 1.3.6: 20 μl of kinase detection reagent was added to each well, centrifuged at 5000 rpm and 18° C. for 10 minutes, and shaken on a plate shaker at 25° C. for 30 minutes; and • 1.3.7: M1000pro MICROPLATE READER was used to read […] values.
The inhibition rate of each compound at each concentration point was calculated by the formula as follows and curve fitting was performed by GraphPad Prism 5 software to obtain the IC50 value.

Sequence of CDK6/CyclinD3 (Q00534 whole entry): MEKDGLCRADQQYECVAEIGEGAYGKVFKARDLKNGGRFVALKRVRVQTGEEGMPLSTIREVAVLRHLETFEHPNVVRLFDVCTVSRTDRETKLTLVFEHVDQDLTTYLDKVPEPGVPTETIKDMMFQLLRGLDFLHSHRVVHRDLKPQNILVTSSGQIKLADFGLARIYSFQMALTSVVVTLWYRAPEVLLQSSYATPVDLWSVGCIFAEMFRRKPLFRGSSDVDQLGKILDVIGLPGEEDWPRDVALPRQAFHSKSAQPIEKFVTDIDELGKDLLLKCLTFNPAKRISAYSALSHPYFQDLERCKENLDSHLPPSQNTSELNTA
Sequence of CDK6/CyclinD3 (P30281 whole entry partner): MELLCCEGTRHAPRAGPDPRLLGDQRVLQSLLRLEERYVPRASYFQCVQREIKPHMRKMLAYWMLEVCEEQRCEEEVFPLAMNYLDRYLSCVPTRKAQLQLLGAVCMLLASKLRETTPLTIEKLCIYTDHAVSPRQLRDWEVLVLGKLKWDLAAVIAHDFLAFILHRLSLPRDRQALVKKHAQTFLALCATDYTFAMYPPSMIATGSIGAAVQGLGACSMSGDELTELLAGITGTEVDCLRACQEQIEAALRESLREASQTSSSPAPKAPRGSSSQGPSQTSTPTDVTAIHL

| SMILES | IC50 | CDK1/CDK6 |
| --- | --- | --- |
| CCN1CCN(Cc2ccc(Nc3ncc(F)c(-c4cc(F)c5c(c4)C(C)(C)C(C)=N5)n3)nc2)CC1 [Example 2, N-(5-((4-ethylpiperazin-1-yl)methyl)pyridin-2-yl)-5-fluoro-4-(7-fluoro-2,3,3-trimethyl-3H-indol-5-yl)pyrimidine-2-amino] | 159 nM |  |
| CCN1CCN(Cc2ccc(Nc3ncc(F)c(-c4cc(F)c5c(c4)C4(CCC4)C(C)=N5)n3)nc2)CC1 [Example 4, N-(5-((4-ethylpiperazin-1-yl)methyl)pyridin-2-yl)-5-fluoro-4-(7′-fluoro-2′-methylspiro[cyclobutane-1,3′-indol]-5′-yl)aminopyrimidine-2-amino] | 2150 nM |  |
| CCN1CCN(Cc2ccc(Nc3nccc(-c4cc(F)c5c(c4)C4(CCCC4)C(C)=N5)n3)nc2)CC1 [Example 8, N-(5-((4-ethylpiperazin-1-yl)methyl)pyridin-2-yl)-4-(7′-fluoro-2′-methylspiro [cyclopentane-1,3′-indol]-5′-yl)pyrimidine-2-amino] | 85.8 nM |  |
| CCC1(C)C(C)=Nc2c(F)cc(-c3nc(Nc4ccc(C5CCNCC5)cn4)ncc3F)cc21 (stereo not drawn) [Example 11] | 5.62 nM | 19.58 |
| CCN1CCN(c2ccc(Nc3ncc(F)c(-c4cc(F)c5c(c4)C(C)(CC)C(C)=N5)n3)nc2)CC1 (stereo not drawn) [Example 19, 4-(3-ethyl-7-fluoro-2,3-dimethyl-3H-indol-5-yl)-N-(5-(4-ethylpiperazin-1-yl)pyridin-2-yl)-5-fluoropyrimidine-2-amino] | 65.5 nM | 0.99 |
| CCN1CCN(c2ccc(Nc3ncc(F)c(-c4cc(F)c5c(c4)C4(CCCC4)C(C)=N5)n3)nc2)CC1 [Example 27, N-(5-(4-ethylpiperazin-1-yl)pyridin-2-yl)-5-fluoro-4-(7′-fluoro-2′-methylspiro [cyclopentane-1,3′-indol]-5′-yl)pyrimidine-2-amino] | 16.2 nM |  |
| CC1=Nc2c(F)cc(-c3nc(Nc4ccc(C5CCN(C)CC5)cn4)ncc3F)cc2C1(C)C [Example 31, 5-Fluoro-4-(7-fluoro-2,3,3-trimethyl-3H-indol-5-yl)-N-(5-(1-methylpiperidin-4-yl)pyridin-2-yl)pyrimidine-2-amino] | 58.8 nM |  |
| CCC1(C)C(C)=Nc2ccc(-c3nc(Nc4ccc(N5CCNCC5)cn4)ncc3F)cc21 (stereo not drawn) [Example 32, 4-(3-ethyl-2,3-dimethyl-3H-indol-5-yl)-5-fluoro-N-(5-(piperazin-1-yl)pyridin-2-yl)pyrimidine-2-amino] | 10.1 nM | 14.01 |
| CCC1(C)C(C)=Nc2ccc(-c3nc(Nc4ccc(C5CCNCC5)cn4)ncc3F)cc21 (stereo not drawn) [Example 33, 4-(3-ethyl-2,3-dimethyl-3H-indol-5-yl)-5-fluoro-N-(5-(piperidin-4-yl)pyridin-2-yl)pyrimidine-2-amino] | 15.6 nM | 10.65 |
| CCC1(C)C(C)=Nc2ccc(-c3nc(Nc4ccc(N5CCN(C)CC5)cn4)ncc3F)cc21 (stereo not drawn) [Example 34, 4-(3-ethyl-2,3-dimethyl-3H-indol-5-yl)-5-fluoro-N-(5-(4-methylpiperazin-1-yl)pyridin-2-yl)pyrimidine-2-amino] | 5.13 nM | 21.75 |
| CCN1CCN(c2ccc(Nc3ncc(F)c(-c4ccc5c(c4)C(C)(CC)C(C)=N5)n3)nc2)CC1 (stereo not drawn) [Example 36, 4-(3-ethyl-2,3-dimethyl-3H-indol-5-yl)-N-(5-(4-ethylpiperazin-1-yl)pyridin-2-yl)-5-fluoropyrimidine-2-amino] | 3.79 nM | 26.65 |
| CC1=Nc2c(F)cc(-c3nc(Nc4ccc(N5CCN(CC6CC6)CC5)cn4)ncc3F)cc2C12CCCC2 [Example 41, N-(5-(4-(cyclopropylmethyl)piperazin-1-yl)pyridin-2-yl)-5-fluoro-4-(7′-fluoro-2′-methylspiro[cyclopentane-1,3′-indol]-5′-yl)pyrimidine-2-amino] | 76.6 nM |  |
